Read-outs that look alike come from different tables or passages of the source.
How the values were obtained:
human EBP = human EBP (Homo sapiens (Human), UniProt Q15125); test: Competition binding assay (SPA, [3H]-Ifenprodil) to determine compound affinity to EBP; conditions: [3H]-Ifenprodil 10 nM, HEK293 membrane overexpressing human EBP, Ki=IC50/(1+[L]/Kd); read-out: hEBP SPA Ki
In short: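 Membranes from HEK293 cells overexpressing human EBP, on SPA beads (0.3 mg beads, 5 µg membrane/well) in Tris/MgCl2/EDTA buffer pH 7.5 with 0.01% BSA and 0.1% DMSO, competed against [3H]-ifenprodil for 3 h to equilibrium. Compounds were tested at 1 µM single dose or 0.06 nM–5 µM; IC50 came from nonlinear fit, and Ki=IC50/(1+[L]/Kd).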

EpiSC-derived OPCs = test: In vitro phenotypic screening of OPCs (MBP staining, high-content imaging); type: cell-based, mouse; conditions: percentage of MBP+ oligodendrocytes, 3 days, 0.5 nM to 1000 nM, read-out: OPC EC50
In short: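 EpiSC-derived mouse OPCs seeded at 150,000/cm^2 on laminin in N2B27 without growth factors, treated 3 days at 37° C. with compound (8 points, 1000 nM to 0.5 nM). Fixed cells stained for MBP and DAPI and imaged; percentage of MBP+ oligodendrocytes fitted by Hill equation for EC50.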

Sequence of human EBP (Q15125 whole entry): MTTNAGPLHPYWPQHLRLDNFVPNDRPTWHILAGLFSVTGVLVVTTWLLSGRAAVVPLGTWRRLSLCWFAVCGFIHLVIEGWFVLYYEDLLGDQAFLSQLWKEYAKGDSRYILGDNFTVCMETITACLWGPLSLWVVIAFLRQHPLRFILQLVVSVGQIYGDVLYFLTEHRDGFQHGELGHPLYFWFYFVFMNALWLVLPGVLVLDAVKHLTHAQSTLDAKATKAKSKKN

| Structure (SMILES) | Ki (human EBP) | EC50 (EpiSC-derived OPCs; Mus musculus, 72 h) | EC50 (EpiSC-derived OPCs) |
| --- | --- | --- | --- |
| O=S1(=O)CC2(CCN([C@H]3CC[C@H](c4cc(C(F)(F)F)nn4C4CC4)CC3)C2)C1 [Compound 12A, 6-((1r,4r)-4-(1-Cyclopropyl-3-(trifluoromethyl)-1H-pyrazol-5-yl)cyclohexyl)-2-thia-6-azaspiro[3.4]octane 2,2-dioxide] | 28 nM | 37 nM | – |
| CC(C)n1nc(-c2cncc(OC(F)F)c2)cc1[C@H]1CC[C@@H](N2CCC3(C2)CS(=O)(=O)C3)CC1 [Compound 33B, (Cis)-6-(4-(3-(5-(Difluoromethoxy)pyridin-3-yl)-1-isopropyl-1H-pyrazol-5-yl)cyclohexyl)-2-thia-6-azaspiro[3.4]octane 2,2-dioxide] | 33 nM | 53 nM | – |
| Cn1nc(C(F)(F)F)cc1[C@H]1CC[C@H](N2CC[C@]3(CCS(=O)(=O)C3)C2)CC1 (single isomer, unassigned) [27B*] | 46 nM | – | 130 nM |
| Cn1nc(C(F)(F)F)cc1[C@H]1CC[C@@H](N2CC[C@]3(CCS(=O)(=O)C3)C2)CC1 (single isomer, unassigned) [38A*] | 27 nM | 200 nM | – |
| CC(C)n1nc(C2CC2)nc1[C@H]1CC[C@H](N2CCC3(C2)CS(=O)(=O)C3)C1 (single isomer, unassigned) [18B*, 6-(3-(3-cyclopropyl-1-isopropyl-1H-1,2,4-triazol-5-yl)cyclopentyl)-2-thia-6-azaspiro[3.4]octane 2,2-dioxide] | 210 nM | 390 nM | – |
| O=S1(=O)CC2(CCN([C@H]3CC[C@@H](c4ccc(C(F)(F)F)nc4)CC3)C2)C1 [Compound 14B, 6-((1s,4s)-4-(6-(Trifluoromethyl)pyridin-3-yl)cyclohexyl)-2-thia-6-azaspiro[3.4]octane 2,2-dioxide] | 30 nM | 240 nM | – |
| Cc1cc(C(F)(F)F)ncc1N1CCC(N2CCC3(C2)CS(=O)(=O)C3)CC1 [Compound 28, 6-(1-(4-Methyl-6-(trifluoromethyl)pyridin-3-yl)piperidin-4-yl)-2-thia-6-azaspiro[3.4]octane 2,2-dioxide] | 33 nM | 64 nM | – |
| CC(C)n1nc(C(F)(F)F)cc1[C@@H]1CC[C@H](N2CCC3(C2)CS(=O)(=O)C3)C1 (single isomer, unassigned) [10C*] | 29 nM | 11 nM | – |
| O=S1(=O)CC2(CCN([C@H]3CC[C@@H](c4ccc(C(F)(F)F)cc4)CC3)C2)C1 [Compound 3B, 6-((1s,4s)-4-(4-(trifluoromethyl)phenyl)cyclohexyl)-2-thia-6-azaspiro[3.4]octane 2,2-dioxide] | 62 nM | 30 nM | – |
| CC(C)n1nc(C2CC2)nc1[C@@H]1CC[C@H](N2CCC3(C2)CS(=O)(=O)C3)C1 (single isomer, unassigned) [18A*] | 310 nM | 390 nM | – |
| O=S1(=O)CC2(CCN(C3CCN(c4ncc(C(F)(F)F)cc4Cl)CC3)C2)C1 [Compound 30, 6-(1-(3-chloro-5-(trifluoromethyl)pyridin-2-yl)piperidin-4-yl)-2-thia-6-azaspiro[3.4]octane 2,2-dioxide] | 39 nM | 10 nM | – |
| O=S1(=O)CC2(CCN([C@@H]3CCN(c4ccc(C(F)(F)F)nc4)C3)C2)C1 (single isomer, unassigned) [9B*] | 170 nM | > 1000 nM | – |
| O=S1(=O)CC2(CCN([C@H]3CC[C@H](c4cc(C(F)(F)F)n(C5CCC5)n4)CC3)C2)C1 [Compound 24, 6-((1r,4r)-4-(1-cyclobutyl-5-(trifluoromethyl)-1H-pyrazol-3-yl)cyclohexyl)-2-thia-6-azaspiro[3.4]octane 2,2-dioxide] | 28 nM | 6 nM | – |
| Cc1cc(C(F)(F)F)ncc1[C@H]1CC[C@@H](N2CCC3(C2)CS(=O)(=O)C3)CC1 [Compound 21A, 6-((1s,4s)-4-(4-Methyl-6-(trifluoromethyl)pyridin-3-yl)cyclohexyl)-2-thia-6-azaspiro[3.4]octane 2,2-dioxide] | 23 nM | 37 nM | – |
| CC(C)n1nc(-c2cncc(C(F)(F)F)c2)cc1[C@H]1CC[C@@H](N2CCC3(C2)CS(=O)(=O)C3)C1 (single isomer, unassigned) [13A*] | 15 nM | 1.3 nM | – |
| O=S1(=O)CC2(CCN([C@H]3CC[C@@H](c4cc(C(F)(F)F)nn4C4CCC4)CC3)C2)C1 [Compound 23A, 6-((1s,4s)-4-(1-Cyclobutyl-3-(trifluoromethyl)-1H-pyrazol-5-yl)cyclohexyl)-2-thia-6-azaspiro[3.4]octane 2,2-dioxide] | 26 nM | 100 nM | – |

Reference: US20240398781A1, “SPIROCYCLIC CYCLIC MODULATORS OF CHOLESTEROL BIOSYNTHESIS AND THEIR USE FOR PROMOTING REMYELINATION” (GENENTECH, INC., priority 2021, published 2024)
